# Patent publication US20030203908A1, “Dihydrofolate reductase inhibitors” (priority 2000, published 2003)
# Where a name gives a salt, the structure may show the parent alone. Read-outs that look alike come from different tables or passages of the source.
# Tests used:
# [1] = target: T1, A16V.S108T mutant (mut) of DHFR from Plasmodium falciparum (Plasmodium falciparum, UniProt A7UD81, A16V/S108T); experiment: biochemical
# T1 construct: The Dihydrofolate Reductase Domain of Plasmodium falciparum Thymidylate Synthase-Dihydrofolate Reductase; made in house
# Procedure: (§1) For determination of the Ki values of a number of synthesized analogues, the assay reactions were initiated with affinity-purified enzyme (^˜0.005-0.01 U ml^−1), and the initial velocities in the presence of varying concentrations of inhibitors were analysed by non-linear least square fit using Kaleidagraph™ software.
# [2] = tested on: A16V.S108T mutant (mut) of DHFR from Plasmodium falciparum; experiment: biochemical; details: resistance factor
# Procedure: as §1
# [3] = target: T2, wild-type (wt) DHFR from Plasmodium falciparum (Plasmodium falciparum, UniProt P13922, N108S/R59C); experiment: Inhibition of wild-type pfDHFR (spectrophotometric, Ki); assay type: biochemical;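 also: Affinity-purified enzyme, initial reaction rates measured across a range of inhibitor concentrations, Ki obtained by nonlinear least-squares fitting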
# T2 construct: The Dihydrofolate Reductase Domain of Plasmodium falciparum Thymidylate Synthase-Dihydrofolate Reductase; made in house
# Procedure: as §1
# [4] = target: T3, DHFR-TS from Trypanosoma cruzi (Trypanosoma cruzi, UniProt Q27793); experiment: Inhibition of T. cruzi DHFR-TS (I50-derived Ki);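 as to all read-outs here: enzymes were recombinant T. cruzi DHFR-TS and human DHFR, both expressed in E. coli and purified on a methotrexate affinity column, with dihydrofolate and NADPH as substrates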; assay type: biochemical; details: for Selectivity: human Ki / T. cruzi Ki
# T3 construct: pET 11c with the insertion of the complete ORF of the gene tc-dhfrts; made in house; host or cells: E. coli BL21 (DE3)
# Procedure: DHFR activity was measured spectrophotometrically by monitoring the decrease in absorbance at 340 mm.
# (§2) Inhibition of dihydrofolate reductases by 1,2-dihydro-1,3,5 triazines was analysed with T. cruzi and human DHFR.
# (§3) DHFR assays contained 30 mM dihydrofolate, 0.1 mM NADPH, 50 mM TES buffer pH 7, 75 mM 2-mercaptoethanol and specified amounts of inhibitors. The reaction was initiated by addition of 2.8 or 2.3 units of T. cruzi and human, respectively, and monitored at 340 nm.
# Selective inhibition of dihydrofolate reductase by 1,2-dihydro-1,3,5-triazines was analysed with T. cruzi and human DHFR. DHFR assays contained 30 μM dihydrofolate, 0.1 mM NADPH, 50 mM TES buffer pH 7, 75 mM β-mercaptoethanol and specified amounts of inhibitors. The reaction was initiated by addition of 2.8 or 2.3 units of T. cruzi and human enzyme, respectively, and monitored at 340 nm.
# KiI 50=[I]0.5/((1+[S])/Km)
# [5] = target: T4, human DHFR (Homo sapiens, UniProt P00374); experiment: Inhibition of human DHFR (I50-derived Ki); assay type: biochemical; details: human DHFR;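 also: recombinant human DHFR expressed in E. coli and purified by methotrexate affinity chromatography, enzyme activity followed spectrophotometrically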
# T4 construct: made in house; host or cells: E. coli M15
# T4 sequence (P00374 1-187): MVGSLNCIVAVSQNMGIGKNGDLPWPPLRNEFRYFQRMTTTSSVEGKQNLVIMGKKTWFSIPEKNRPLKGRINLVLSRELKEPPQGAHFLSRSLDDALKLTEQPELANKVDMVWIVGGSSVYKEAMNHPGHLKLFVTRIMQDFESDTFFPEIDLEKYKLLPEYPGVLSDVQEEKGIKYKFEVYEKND
# Procedure: (§4) Folic acid and NADPH, were purchased from Sigma. Dihydrofolate was prepared from folic acid dithionate reduction. Methotrexate (MTX) was from Lederle Laboratories. MTX sepharose CL-6B was prepared according to the protocol described by Dann. et al. IPTG came from Boehringer Manheim. The expression system used for recombinant human DHFR production, which includes the plasmid PB-E1/RB SII, SphI-HDHFR expressed in E. coli M15, was supplied by Santi, D. V (Department of Biochemistry and Biophysics and Department of Pharmaceutical Chemistry, University of California). Recombinant T. Cruzi DHFR-TS was produced using the system pET 11c with the insertion of the complete ORF of the gene tc-dhfrts. The resulting plasmid was called pET DT.
# (§5) Human and T.cruzi DHFR were produced using inducible expression systems. For human DHFR, fresh overnight cultures of E. coli M15, transformed with the plasmid, pB-E1/RB SII, SphI-HDHFR, were grown in LB and 0.1 mg/ml ampicillin medium at 28° C. For T.cruzi DHFR-TS, cultures of E. coli, BL21 (DE3) transformed with the plasmid pETDT system were grown at 37° C. The same purification protocol was used for both systems. When OD600 was at 0.8, cells pellets were collected by centrifugation, suspended in 50 ml of LB medium, containing 0.1 mg/ml of ampicillin. 10 ml of this preinocule was added to 2 litres of LB medium. Cultures were shaken at 28° C. or 37° C. (for human and T. cruzi DHFR respectively) and induction with IPTG ImM was performed when OD600 reached 0.8. After IPTG induction, cells were grown overnight in a shaker at 28° C. or 5 hours at 28° C. or 37° C. (for human and T. cruzi DHFR respectively) and then harvested by centrifugation.
# (§6) Cell pellets were suspended in sonication buffer (2× TES DHFR:TES 100 mM, 2-mercaptoethanol 150 mM, EDTA 2 mM pH=7) containing protease inhibitors.
# (§7) Crude extract was circulated through the MTX-Sepharose column at 4° C. at a flow rate of 0.2 ml/min until the protein was bound to the resin. The column was washed with an excess of buffer B (KH2PO410 mM pH 7, KC1 1M). Protein was eluted at 0.2 min/ml with an elution buffer (100 mM TES, 10 mM DTT, 2 mM EDTA, DHF 8.5 mM), the elution profile was collected in 1 ml fractions using a Pharmacia LKB Frac 200 collector. Finally, the protein was desalted using molecular size exclusion chromatography in a Pharmacia G-25 column. Fractions containing DHFR activity were pooled and concentrated by ultrafiltration using centripreps Amicon.
# (§8) The purity of the protein preparation was assessed by detection of a single band of the correct molecular weight stained with coomasie blue following a 12% SDS-PAGE. Protein concentration was determined by the method of Bradford using a BSA as a standard. DHFR activity was measured spectrophotometrically by monitoring the decrease in absorbance at 340 mm. […] One unit of enzyme, is defined as the amount of enzyme which produces 1 nmol of product per min using ε of 12300M^−1 at 340 nm.
# as §2, §3
# (§9) Selective inhibition of dihydrofolate reductase by 1,2-dihydro-1,3,5-triazines was analysed with T. cruzi and human DHFR. DHFR assays contained 30 μM dihydrofolate, 0.1 mM NADPH, 50 mM TES buffer pH 7, 75 mM β-mercaptoethanol and specified amounts of inhibitors. The reaction was initiated by addition of 2.8 or 2.3 units of T. cruzi and human enzyme, respectively, and monitored at 340 nm. […] KiI 50=[I]0.5/((1+[S])/Km)
# [6] = tested on: wild-type (TM4/8.2) strain of P. falciparum; experiment: microbe, parasite or virus in culture; assay type: cell-based, Plasmodium falciparum; details: Plasmodium falciparum; wild-type strain TM4/8.2
# Procedure: Mol. Biochem. Parasitol. […] Science, 1976, 193, 673-675]. In vitro antimalarial activity was determined by using [^3H]-hypoxanthine incorporation method [Desjardins, R. E.; Canfield, C. J.; Haynes, J. D.; Chulay, J. D. Quantitative assessment of antimalarial activity in vitro by a semiautomated microdilution technique. Antimicrob Agents Chemother. 1979, 16, 710-718]. The drugs were initially dissolved in DMSO and diluted with the culture media. Aliquots (25 μl) of drug solution of different concentrations was placed in 96-well plate together with 200 μl of 1.5% cell suspension of parasitized erythrocytes containing 1-2% parasitemia. Final concentration of DMSO was 0.1% where there was no effect on the parasite growth. The mixtures were incubated in a 3% CO2 incubator at 37° C. After 24 h of incubation, 25 μl (0.25 μCi) of [^3H]-hypoxanthine were added to each well. The mixtures were further incubated under the same condition for 18-24 h. DNA of parasites was harvested onto glass filter paper (Unifilter, Packard, USA). The filters were dried and liquid scintillation fluid was added for radioactivity measurement in a 6-probe liquid scintillation-counter (Packard, USA).
# [7] = target: human DHFR; experiment: Inhibition of human DHFR (I50-derived Ki); assay type: biochemical;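 also: recombinant human DHFR expressed in E. coli and purified by methotrexate affinity chromatography, enzyme activity followed spectrophotometrically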
# Procedure: as §4, §5, §6, §7, §8, §2, §3, §9
# T3 sequence (Q27793 whole entry): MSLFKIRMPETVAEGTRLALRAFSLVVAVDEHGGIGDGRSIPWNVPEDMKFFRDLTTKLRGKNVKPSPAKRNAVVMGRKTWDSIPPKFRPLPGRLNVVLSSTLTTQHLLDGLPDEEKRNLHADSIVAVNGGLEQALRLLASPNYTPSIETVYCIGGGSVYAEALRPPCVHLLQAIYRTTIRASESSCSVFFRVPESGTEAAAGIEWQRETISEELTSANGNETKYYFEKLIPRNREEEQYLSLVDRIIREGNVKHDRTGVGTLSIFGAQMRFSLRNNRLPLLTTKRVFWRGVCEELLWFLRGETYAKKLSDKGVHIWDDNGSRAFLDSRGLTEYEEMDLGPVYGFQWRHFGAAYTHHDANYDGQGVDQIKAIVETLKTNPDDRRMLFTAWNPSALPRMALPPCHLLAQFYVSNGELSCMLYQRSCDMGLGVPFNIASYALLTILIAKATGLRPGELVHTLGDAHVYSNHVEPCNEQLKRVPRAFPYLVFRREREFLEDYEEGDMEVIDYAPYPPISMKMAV
# T1 sequence (A7UD81 1-231 A16V/S108T): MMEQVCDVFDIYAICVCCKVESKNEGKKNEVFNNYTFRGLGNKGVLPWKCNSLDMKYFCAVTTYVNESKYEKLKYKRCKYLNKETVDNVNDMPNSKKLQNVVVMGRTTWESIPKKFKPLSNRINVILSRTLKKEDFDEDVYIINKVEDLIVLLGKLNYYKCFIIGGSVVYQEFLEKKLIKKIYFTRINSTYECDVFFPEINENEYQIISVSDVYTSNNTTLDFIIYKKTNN
# T2 sequence (P13922 10-228 R59C/N108S): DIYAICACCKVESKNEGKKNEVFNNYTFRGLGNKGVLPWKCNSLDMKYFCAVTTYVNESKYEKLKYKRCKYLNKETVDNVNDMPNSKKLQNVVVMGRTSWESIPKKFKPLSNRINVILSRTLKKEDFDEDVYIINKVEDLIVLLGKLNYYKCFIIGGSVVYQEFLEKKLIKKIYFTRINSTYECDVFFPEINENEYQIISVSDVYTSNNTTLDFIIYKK
SMILES,Ki [1],Ki(mut)/Ki(wt) [2],Ki ([3]; Ki(wt) nM),Ki [4],Selectivity [4],Ki ([5]; Human Ki (I50)(nM)),IC50 [6],Ki (human)/Ki (P. falc. mut) [7],Ki (human)/Ki (P. falc. wt) [7],Ki (human)/Ki (T. cruzi) [7],Ki ([5]; read-out: Human Ki (I50)),"Ki ([4]; T. cruzi DHFR-TS, read-out: T. cruzi Ki (I50))",Ki ([3]; read-out: Ki(wt))
"NC1=NC(c2cccc(Oc3ccccc3)c2)N(c2cccc(-c3ccccc3)c2)C(N)=N1 (stereo not shown) [1-m-biphenyl-2-m-phenoxyphenyl-4,6-diamino-1,2-dihydro-1,3,5-triazine]",4.8 ± 0.9 nM,2.2,2 nM,,,,,,,,,,
"COc1ccc(C2N=C(N)N=C(N)N2c2ccc(Cl)cc2)cc1OC (stereo not shown) [(Ia) R2=3,4-dimethoxyphenyl]",124 ± 5 nM,3.8,32.7 ± 2 nM,386 nM,67,25700 nM,2270 nM,,,,,,
"COc1cc(OC)cc(C2N=C(N)N=C(N)N2c2ccc(Cl)cc2)c1 (stereo not shown) [(Ia) R2=3,5-dimethoxyphenyl]",100 ± 7 nM,2.6,38.3 ± 8 nM,200 nM,129,25800 nM,3250 nM,,,,,,
NC1=NC(c2cccc(Oc3ccc(Cl)cc3)c2)N(c2ccc(Cl)cc2)C(N)=N1 (stereo not shown) [(Ia) R2=3-(4-chlorophenoxy)phenyl],7.5 nM,5.3,1.4 ± 0.3 nM,,,,2850 nM,,,,,,
"NC1=NC(c2cccc(O)c2)N(c2ccc(Cl)cc2)C(N)=N1 (stereo not shown) [(Ia) R2=m-hydroxyphenyl, 1-p-chlorophenyl-2-m-hydroxyphenyl-4,6-diamino-1,2-dihydro-1,3,5-triazine]",123 ± 13 nM,20.6,6 ± 0.4 nM,,,1680 nM,48 nM,13.7,280,56,,,
COc1cccc(C2N=C(N)N=C(N)N2c2ccc(Cl)cc2)c1 (stereo not shown) [(Ia) R2=m-methoxyphenyl],62.8 ± 2.4 nM,6.0,10.4 ± 1.4 nM,,,,577 nM,,,,,,
N#Cc1ccc(C2N=C(N)N=C(N)N2c2ccc(Cl)cc2)cc1 (stereo not shown) [(Ia) R2=p-cyanophenyl],205 ± 22 nM,,11.3 ± 1.4 nM,650 nM,,,804 nM,,,,,,
NC1=NC(c2ccc(O)cc2)N(c2ccc(Cl)cc2)C(N)=N1 (stereo not shown) [(Ia) R2=p-hydroxyphenyl],98 ± 10 nM,8.6,11.3 ± 1.7 nM,,,,,,,,,,
"NC1=NC(c2ccccc2)N(c2ccc(Cl)cc2)C(N)=N1 (stereo not shown) [(Ia) R2=phenyl, 1-(4′-Chlorophenyl)-2-phenyl-4,6-diamino-1,2-dihydro-1,3,5-triazine hydrochloride]",49.3 ± 3.3 nM,,,42 nM,,,27 nM,,,,3870 nM,,
"COc1cc(C2N=C(N)N=C(N)N2c2cccc(Cl)c2)cc(OC)c1OC (stereo not shown) [(Ib) R2=3,4,5-trimethoxyphenyl]",1010 ± 27 nM,1.0,960 ± 79 nM,,,,> 50000 nM,,,,,,
"COc1ccc(C2N=C(N)N=C(N)N2c2cccc(Cl)c2)cc1OC (stereo not shown) [(Ib) R2=3,4-dimethoxyphenyl]",164 ± 6 nM,6.0,27.2 ± 2 nM,,,,6820 nM,,,,,,
"COc1cc(OC)cc(C2N=C(N)N=C(N)N2c2cccc(Cl)c2)c1 (stereo not shown) [(Ib) R2=3,5-dimethoxyphenyl]",30.9 ± 3 nM,0.4,79.4 ± 7 nM,,,,> 50000 nM,,,,,,
"NC1=NC(c2cccc(Oc3cc(Cl)cc(Cl)c3)c2)N(c2cccc(Cl)c2)C(N)=N1 (stereo not shown) [(Ib) R2=3-(3,5-dichlorophenoxy)phenyl]",4.7 ± 0.4 nM,2.6,1.8 ± 0.6 nM,,,,5470 nM,,,,,,
NC1=NC(c2cccc(O)c2)N(c2cccc(Cl)c2)C(N)=N1 (stereo not shown) [(Ib) R2=3-hydroxyphenyl],19.7 ± 2.4 nM,0.7,27.9 ± 4.5 nM,,,,551 nM,,,,,,
COc1cccc(C2N=C(N)N=C(N)N2c2cccc(Cl)c2)c1 (stereo not shown) [(Ib) R2=3-methoxyphenyl],59.1 ± 6.3 nM,10.9,5.4 ± 0.2 nM,240 nM,5.3,1270 nM,4370 nM,,,,,,
"NC1=NC(c2ccc(OCc3cc(F)cc(F)c3)cc2)N(c2cccc(Cl)c2)C(N)=N1 (stereo not shown) [(Ib) R2=4-(3,5-difluorobenzyloxy)phenyl]",7.4 ± 0.7 nM,1.7,4.4 ± 0.4 nM,,,,3780 nM,,,,,,

SMILES,Ki [1],Ki(mut)/Ki(wt) [2],Ki ([3]; Ki(wt) nM),Ki [4],Selectivity [4],Ki ([5]; Human Ki (I50)(nM)),IC50 [6],Ki (human)/Ki (P. falc. mut) [7],Ki (human)/Ki (P. falc. wt) [7],Ki (human)/Ki (T. cruzi) [7],Ki ([5]; read-out: Human Ki (I50)),"Ki ([4]; T. cruzi DHFR-TS, read-out: T. cruzi Ki (I50))",Ki ([3]; read-out: Ki(wt))
CCCOc1ccc(C2N=C(N)N=C(N)N2c2cccc(Cl)c2)cc1 (stereo not shown) [(Ib) R2=4-(n-propyloxy)phenyl],9.3 ± 0.6 nM,,,,,,248 nM,,,,,,
NC1=NC(c2ccc(Br)cc2)N(c2cccc(Cl)c2)C(N)=N1 (stereo not shown) [(Ib) R2=4-bromophenyl],21.9 ± 2.5 nM,0.8,27 ± 4.5 nM,,,,9100 nM,,,,,,
NC1=NC(c2ccc(O)cc2)N(c2cccc(Cl)c2)C(N)=N1 (stereo not shown) [(Ib) R2=4-hydroxyphenyl],57.7 ± 7.5 nM,1.0,59.1 ± 1 nM,,,56 nM,3070 nM,0.97,0.95,1.17,,,
COc1ccc(C2N=C(N)N=C(N)N2c2cccc(Cl)c2)cc1 (stereo not shown) [(Ib) R2=4-methoxyphenyl],12.5 ± 0.9 nM,0.6,21.8 ± 1 nM,,,,2560 nM,,,,,,
"Cl.NC1=NC(c2ccccc2)N(c2cccc(Cl)c2)C(N)=N1 (stereo not shown) [(Ib) R2=phenyl, 1-(3′-Chlorophenyl)-2-phenyl-4,6-diamino-1,2-dihydro-1,3,5-triazine hydrochloride]",10 ± 7 nM,0.9,11.7 ± 2.5 nM,,,,565 nM,,,,,,
COc1ccc(Oc2cccc(C3N=C(N)N=C(N)N3c3ccc(Cl)c(Cl)c3)c2)cc1 (stereo not shown) [(Ic) R2=3-(4-methoxyphenoxy)phenyl],7.4 ± 0.8 nM,3.9,1.9 ± 0.3 nM,,,,2930 nM,,,,,,
NC1=NC(c2cccc(Oc3ccccc3)c2)N(c2ccc(Cl)c(Cl)c2)C(N)=N1 (stereo not shown) [(Ic) R2=3-phenoxyphenyl],5.2 ± 0.6 nM,2.7,1.9 ± 0.3 nM,,,,330 nM,,,,,,
NC1=NCN(c2ccc(Cl)c(Cl)c2)C(N)=N1 [(Ic) R2=H],43.6 ± 5.8 nM,8.2,5.3 ± 0.7 nM,36 nM,1.9,,123 nM,,,0.19,,,
"NC1=NC(c2ccccc2)N(c2ccc(Cl)c(Cl)c2)C(N)=N1 (stereo not shown) [(Ic) R2=Ph, 1-(3′,4′-Dichlorophenyl)-2-phenyl-4,6-diamino-1,2-dihydro-1,3,5-triazine hydrochloride]",,,,,,,26 nM,,,,,,
"NC1=NC(c2cccc(OCc3ccccc3)c2)N(c2cccc(Cc3ccccc3)c2)C(N)=N1 (stereo not shown) [R2=3-BnOC6H4, X=H, Y=Bn, 1-m-benzylphenyl-2-m-benzyloxyphenyl-4,6-diamino-1,2-dihydro-1,3,5-triazine]",7.4 ± 0.9 nM,3.2,2.3 ± 0.3 nM,32 nM,9.1,292 nM,,39,127,9.1,,,
"NC1=NC(c2cccc(OCc3ccccc3)c2)N(c2cccc(OCc3ccccc3)c2)C(N)=N1 (stereo not shown) [R2=3-BnOC6H4, X=H, Y=BnO, 1-m-benzyloxyphenyl-2-m-benzyloxyphenyl-4,6-diamino-1,2-dihydro-1,3,5-triazine]",7.2 ± 1 nM,1.7,4.3 ± 0.2 nM,128 nM,16.6,2130 nM,,,,,,,
"COc1ccc(C2N=C(N)N=C(N)N2c2ccc(F)cc2)cc1 (stereo not shown) [R2=4-MeOC6H4, X=F, Y=H]",,,,61 nM,441,26900 nM,,,,441,,,
"NC1=NCN(c2ccc(Br)cc2)C(N)=N1 [R2=H, X=Br, Y=H]",,,,100 nM,4.8,480 nM,,,,,,,
"Cl.NC1=NCN(c2ccccc2)C(N)=N1 [R=H, X=H, 1-(phenyl)-4,6-diamino-1,2-dihydro-1,3,5-triazine hydrochloride]",585 ± 70 nM,1.8,329 ± 27 nM,,,,,2.44,4.35,,1430 nM,,
"CC1(C)N=C(N)N=C(N)N1c1ccc(Cl)cc1 [cycloguanil, Cycloguanil, reference compound]",1310 nM,,,,,,40 nM,,,,,370 nM,1.5 nM
